From patent US11000039B2, “Composition for controlling nematode comprising grammicin compound as effective ingredient and uses thereof” (INDUSTRY FOUNDATION OF CHONNAM NATIONAL UNIVERSITY, priority 2016, dated 2021)
Values after ≈ are worked out from the molar mass of the structure shown.

What was measured:
[1] = test system: sweet potato root knot nematode (M. incognita) 2nd stage juveniles; test: organism not typed; settings: for LC50: Meloidogyne incognita, read-out: LC50 M. incognita 72 h
Protocol: The three layers were finally applied at concentrations of 15.6, 31.3, 62.5, 125, 250, 500, or 1,000 μg/ml. As a control group, treatment with 1% acetone and methanol was carried out, and, after the treatment, the 96-well plate was shaken for 30 seconds so that the test compound is mixed well. Thereafter, the plate was added to a plastic container having relative humidity of 100% and stored at room temperature. To obtain eggs of a root knot nematode from roots of tomato infected by root knot nematode, plant roots were washed with tap water to remove adhering soil and cut into 1 cm pieces. Eggs were extracted in 0.5% sodium hypochlorite solution for 1 min and collected by passage through 45 and 25 μm sieves. Second-stage juveniles (J2) were allowed to hatch in modified Baermann funnels at 20° C.
Ninety nine μl of 50 2nd stage juveniles of sweet potato root knot nematode were added to each well of a 96-well plate, and then, according to a treatment of 1% solvent extract, the final volume per well was adjusted to 100 μl. […] 72 Hours after the treatment with a test compound, mortality was determined under an optical inverted microscope by using the equation shown below. As for the mortality, the linear nematode showing no movement was taken as dead nematode, the nematode showing movement of flexible curve was taken as live nematode, and the mortality was examined using the following equation. Mortality (%)=[Mortality percentage in treatment−mortality percentage of negative control/(100−mortality percentage in negative control)]×100
To determine the mortality and activity of inhibiting egg hatching of the purified compound, the compound was dissolved in methanol and trans-cinnamaldehyde as a control agent was dissolved in ethanol and used for the experiment. […] Furthermore, the activity of inhibiting egg hatching of sweet potato root knot nematode (M. incognita) was also examined at the same concentration. As a non-treatment group, 1% methanol and ethanol were used, and, according to the method explained above, the mortality and activity of inhibiting egg hatching were examined. The experiments were carried out in triplicate. The mortality was determined 3 days after the treatment of a test compound while the rate of inhibiting egg hatching was determined 14 days after the treatment of a test compound. The rate of inhibiting egg hatching was calculated based on the following equation. Egg hatching inhibitory activity (%)=[(C−T)/C]×100,

[2] = test system: carrot root knot nematode (M. hapla) 2nd stage juveniles; test: Mortality against 2nd stage juveniles of carrot root knot nematode; set-up: species or system Meloidogyne hapla; settings: 72 h; for LC50: 2nd stage juveniles
[3] = test system: eggs of sweet potato root knot nematode (M. incognita); test: Egg hatching inhibitory activity against sweet potato root knot nematode; set-up: species or system Meloidogyne incognita; settings: 336 h, 14 days after treatment, read-out: Rate of inhibiting egg hatching; for inhibition at 3.1 µg/mL: 3.1 μg/ml; for inhibition at 25 µg/mL: 25 μg/ml
Protocol: The experiments were carried out in triplicate. […] Egg hatching inhibitory activity (%)=[(C−T)/C]×100,
C=Egg hatching rate of control group*, T=Egg hatching rate of treatment group *Egg hatching rate (%)=Number of juveniles/[Number of egg+Number of juveniles]×100

colon cancer cell SW.71 = test: MTT cell viability assay (human cytotoxicity); settings: for Cytotoxicity, in words: test concentration 0.1 to 10 μg/ml; for Cytotoxicity, in words / Cell viability compared to the non-treatment group: 24 hours
Protocol: The colon cancer cell SW.71 as a cell line used for the experiment was kept in −196° C. liquid nitrogen tank until use. The colon cancer cell SW.71 was added, in RPMI-1640 (Life Technologies Inc., USA) medium, with 10% FBS (fetal bovine serum, Gibco) and 1% penicillin-streptomycin, cultured for 72 hours in an incubator at condition of 37° C., 5% CO2, and then used. As for the MTT reagent, thiazolyl blue tetrazolium bromide was used, and, after dissolving it in PBS (phosphate buffer saline) to have final concentration of 5 mg/ml, it was kept at 4° C. under light-shielding condition. The colon cancer cell SW.71 was inoculated, in an amount of 130 μl, to a 96-well plate to have concentration of 5×10^3 or 1×10^4 cells/well. […] After culturing the cells for 24 hours, the MTT solution was added in an amount of 14.5 μl for each well followed by culture for 2 hours or longer at 37° C. The medium was carefully removed and DMSO was added in an amount of 108.5 μl per well to terminate the reaction followed by stirring using a plate shaker for 30 minutes at room temperature, dark conditions. Thereafter, by using a microplate ELISA reader, absorbance at a wavelength of 540 nm was measured, and the cell viability after culture for 24 hours was examined. For the non-treatment group, 1% MeOH was added to a DMEM medium. All the experiments were repeated in triplicate.

## O=C1C=C2C(O)C=COC2O1 (stereo not shown) [grammicin]
[1]
  Mortality against root knot nematodes, in words (summary): very high mortality
[1]; 72 h
  mortality at 12.5 µg/mL: 52.8%
  mortality at 50 µg/mL: 100%
  LC50: 15.9 µg/mL (≈ 103 µM)
[2]; 25 μg/ml, 3 days after treatment
  mortality at 25 µg/mL: 62.4%
[2]; 50 μg/ml, 3 days after treatment
  mortality at 50 µg/mL: 100%
[2]
  LC50: 3.12 µg/mL (≈ 20.2 µM)
[3]
  inhibition at 3.1 µg/mL: 68.2%
  inhibition at 25 µg/mL: 91.4%
Colon cancer cell SW.71; at a test concentration
  Cytotoxicity for colon cancer cells, in words (summary): no toxicity
Colon cancer cell SW.71; 1×10^4 cells/well
  Cytotoxicity, in words: no cytotoxicity
Colon cancer cell SW.71; 5×10^3 cells/well
  Cytotoxicity, in words: no cytotoxicity

## O=C1C=C2C(=CCOC2O)O1 (stereo not shown) [patulin]
[1]
  Mortality against root knot nematodes, in words (summary): almost no activity
  mortality at 100 µg/mL: 38.7%
Colon cancer cell SW.71; 0.1 μg/ml, 1×10^4 cells/well
  Cell viability compared to the non-treatment group: 66.2%
Colon cancer cell SW.71; 0.1 μg/ml, 5×10^3 cells/well
  Cell viability compared to the non-treatment group: 72.2%
Colon cancer cell SW.71; 0.5 μg/ml, 1×10^4 cells/well
  Cell viability compared to the non-treatment group: 80.5%
Colon cancer cell SW.71; 0.5 μg/ml, 5×10^3 cells/well
  Cell viability compared to the non-treatment group: 72.1%
Colon cancer cell SW.71; 1 μg/ml, 1×10^4 cells/well
  Cell viability compared to the non-treatment group: 75.3%
Colon cancer cell SW.71; 1 μg/ml, 5×10^3 cells/well
  Cell viability compared to the non-treatment group: 42.1%
Colon cancer cell SW.71; 5 μg/ml, 1×10^4 cells/well
  Cell viability compared to the non-treatment group: 58.4%
Colon cancer cell SW.71; 5 μg/ml, 5×10^3 cells/well
  Cell viability compared to the non-treatment group: 43.5%
Colon cancer cell SW.71; 10 μg/ml, 1×10^4 cells/well
  Cell viability compared to the non-treatment group: 27.6%
Colon cancer cell SW.71; 10 μg/ml, 5×10^3 cells/well
  Cell viability compared to the non-treatment group: 31.4%

## O=C/C=C/c1ccccc1 [trans-cinnamaldehyde]
[1]; 72 h
  LC50: 18.3 µg/mL (≈ 139 µM)
[2]
  LC50: 8.56 µg/mL (≈ 64.8 µM)
[3]
  inhibition at 3.1 µg/mL: 31.3%
  inhibition at 25 µg/mL: 65%
